A short description of assay [1]: ADAM10 protease inhibitors, dose response, selectivity assay for ADAM17 exosite inhibitor project, biochemical, FRET peptide substrate, recombinant human ADAM10 (AID 743259).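 Also: ADAM10 enzyme cleaving a FRET peptide substrate.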
Assay [2] is described as follows: HEp-2 cell cytotoxicity, dose response, cytotoxicity control for RSV inhibitor project, HTS (AID 2410). In kind it is functional. The settings on record: human respiratory syncytial virus.
Assay [3] addresses Disintegrin and metalloproteinase domain-containing protein 17 (Homo sapiens, UniProt P78536). The assay can be described thus: exosite inhibitors of ADAM17, dose response, biochemical (AID 743260).
Assay [4] deals with CAAX prenyl protease 2 (Saccharomyces cerevisiae S288c, UniProt Q03530). In kind it is biochemical.
In assay [5] the target is T1, CAAX prenyl protease 2 (Homo sapiens, UniProt Q9Y256).
T1 sequence (Q9Y256 whole entry): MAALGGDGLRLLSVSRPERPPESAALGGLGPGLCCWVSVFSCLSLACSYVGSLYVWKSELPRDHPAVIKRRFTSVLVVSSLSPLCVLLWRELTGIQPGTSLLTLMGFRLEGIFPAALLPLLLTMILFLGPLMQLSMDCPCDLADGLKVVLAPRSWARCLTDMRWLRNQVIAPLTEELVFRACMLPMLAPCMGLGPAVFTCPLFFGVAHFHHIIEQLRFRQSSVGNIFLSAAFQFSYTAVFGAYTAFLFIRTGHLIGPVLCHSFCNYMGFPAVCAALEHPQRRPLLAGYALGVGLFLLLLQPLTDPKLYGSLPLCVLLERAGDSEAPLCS
Briefly: human Rce1 protease inhibitors, dose response, biochemical, yeast membranes, quenched-peptide fluorescence, cherry-pick (AID 588849).

The target in assay [6] is DNA dC->dU-editing enzyme APOBEC-3G (Homo sapiens, UniProt Q9HC16). Briefly: Dose Response confirmation of small molecule APOBEC3G DNA Deaminase Inhibitors via a fluorescence-based single-stranded DNA deaminase assay. [Related pubchem assays (depositor defined):AID493012, AID493028]. In kind it is functional.
Assay [7] has as its target DNA dC->dU-editing enzyme APOBEC-3A (Homo sapiens, UniProt P31941). Briefly: APOBEC3A DNA deaminase inhibitors, dose response, biochemical (AID 504722). In kind it is functional.
For assay [8], the target named is T2, Corticotropin-releasing factor receptor 2/Corticotropin-releasing factor-binding protein (Homo sapiens, UniProt P24387+Q13324).
T2 sequence (Q13324 whole entry): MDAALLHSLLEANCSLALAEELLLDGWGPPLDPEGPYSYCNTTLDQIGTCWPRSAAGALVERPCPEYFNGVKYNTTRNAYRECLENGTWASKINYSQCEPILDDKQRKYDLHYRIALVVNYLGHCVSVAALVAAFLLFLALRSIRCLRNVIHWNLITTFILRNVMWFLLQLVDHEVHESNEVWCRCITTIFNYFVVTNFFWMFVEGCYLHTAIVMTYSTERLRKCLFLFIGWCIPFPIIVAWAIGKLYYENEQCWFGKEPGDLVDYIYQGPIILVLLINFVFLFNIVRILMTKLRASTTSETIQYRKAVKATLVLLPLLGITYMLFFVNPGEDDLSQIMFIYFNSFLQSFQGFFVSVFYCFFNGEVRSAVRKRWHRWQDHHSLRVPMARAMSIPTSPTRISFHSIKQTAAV
T2 sequence (P24387 whole entry): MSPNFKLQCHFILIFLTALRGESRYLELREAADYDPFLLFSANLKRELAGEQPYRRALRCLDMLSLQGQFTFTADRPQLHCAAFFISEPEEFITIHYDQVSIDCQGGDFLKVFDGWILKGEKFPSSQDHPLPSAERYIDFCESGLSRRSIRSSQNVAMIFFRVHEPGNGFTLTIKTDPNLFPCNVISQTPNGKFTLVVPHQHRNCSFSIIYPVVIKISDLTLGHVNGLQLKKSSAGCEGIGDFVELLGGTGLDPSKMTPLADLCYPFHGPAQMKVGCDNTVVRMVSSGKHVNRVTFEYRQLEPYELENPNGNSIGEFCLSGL
The assay can be described thus: activators of CRF receptor 2 with binding protein – uHTS hits, confirmation (AID 602473). In kind it is functional. The settings on record: read-out: EC50_Mean.

The target of assay [9] is T3, Streptokinase A (Streptococcus pyogenes serotype M1, UniProt P10520).
T3 sequence (P10520 whole entry): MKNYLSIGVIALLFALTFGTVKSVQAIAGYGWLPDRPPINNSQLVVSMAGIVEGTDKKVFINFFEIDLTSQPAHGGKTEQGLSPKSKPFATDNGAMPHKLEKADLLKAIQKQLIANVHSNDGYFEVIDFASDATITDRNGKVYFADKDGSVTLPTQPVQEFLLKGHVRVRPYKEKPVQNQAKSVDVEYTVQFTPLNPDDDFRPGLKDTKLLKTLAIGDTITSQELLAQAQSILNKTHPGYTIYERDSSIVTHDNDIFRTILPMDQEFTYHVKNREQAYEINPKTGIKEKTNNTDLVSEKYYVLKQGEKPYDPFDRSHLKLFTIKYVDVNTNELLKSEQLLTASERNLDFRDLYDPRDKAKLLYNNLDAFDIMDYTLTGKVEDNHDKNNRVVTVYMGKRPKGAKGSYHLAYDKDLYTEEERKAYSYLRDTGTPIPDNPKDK
Briefly: S. pyogenes streptokinase expression inhibitors, potency, dose response, plasminogen activation absorbance, OD405 (AID 1914).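 Also: secreted streptokinase activity via plasminogen activation per viability signal from cell pellet.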 In kind it is functional, Streptococcus pyogenes M1 GAS.

A short description of assay [10]: cytotoxicity in KRAS-transformed pancreatic duct cells, primary screen, cell-based, fluorescence, HTS (AID 431).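 Also: cell line used: HPDE-C7K.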 In kind it is functional. Particulars: Homo sapiens.
The subject of assay [11] is Streptococcus. Briefly: Group A Streptococcus viability loss, dose response, counter-screen for streptokinase expression inhibitor project, luminescence, BacTiterGlo (AID 1915).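 Also: potency for reduction of bacterial viability or growth.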 In kind it is functional, organism-based. For orientation: The purpose of a counterscreen is to sort out artefacts and off-target activity.
Assay [12] can be described thus: cytotoxicity in HPDE-C7 cells, cell-based, fluorescence, HTS (AID 430). In kind it is functional. The settings on record: Homo sapiens.
For assay [13], the target named is T4, Calpain-2 catalytic subunit (Sus scrofa, UniProt P43367).
T4 sequence (P43367 whole entry): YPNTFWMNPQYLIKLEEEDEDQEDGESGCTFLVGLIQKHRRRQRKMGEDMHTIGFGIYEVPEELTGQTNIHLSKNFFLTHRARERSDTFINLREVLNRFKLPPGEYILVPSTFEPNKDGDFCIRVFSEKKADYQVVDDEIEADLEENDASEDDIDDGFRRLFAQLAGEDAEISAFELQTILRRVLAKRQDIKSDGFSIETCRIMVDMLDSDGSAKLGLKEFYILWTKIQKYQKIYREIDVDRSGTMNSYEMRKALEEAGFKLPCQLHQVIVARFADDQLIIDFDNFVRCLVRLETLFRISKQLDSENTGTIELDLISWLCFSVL
Briefly: pig calpain II inhibitor potency, dose response, biochemical, fluorogenic peptide substrate (AID 1420). In kind it is functional.

Assay [14] addresses Heat shock protein HSP 90-alpha (Homo sapiens, UniProt P07900). In kind it is functional, organism-based.
For assay [15], the target named is G-protein coupled receptor 55 (Homo sapiens, UniProt Q9Y2T6). The assay can be described thus: GPR55 agonists via beta-arrestin recruitment, primary screen, imaging, U2OS cells, beta-arrestin-GFP redistribution (AID 1961). In kind it is functional. (Activated receptors often draw arrestin, which recruitment assays turn into a signal.)
The target of assay [16] is T2, Corticotropin-releasing factor receptor 2/Corticotropin-releasing factor-binding protein. The assay can be described thus: Dose Response confirmation of uHTS hits for small molecule antagonists of the CRF-binding protein and CRF-R2 receptor complex. In kind it is functional. The settings on record: read-out: IC50_Mean.
Assay [17] deals with Streptococcus sp. 'group A'. The assay can be described thus: growth inhibition of control SK(-) GAS strain, dose response, counter-screen for streptokinase expression inhibitor project, luminescence, kanamycin, BacTiterGlo, confirmation (AID 1900). In kind it is functional, organism-based.
The nature of assay [18]: inhibitors of PGC1a acetylation in cells, dose response, cell-based, cherry-picked samples (AID 720514).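 Also: potency may reflect raised or lowered acetylation signal.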 In kind it is functional.
Assay [19] has as its target Beta-galactosidase (Escherichia coli, UniProt Q8VNN2). Briefly: beta-galactosidase enzyme inhibitors and activators, dose response, artefact control for CCR6 antagonist project, biochemical, E. coli enzyme, set 3 (AID 504712). In kind it is functional.
A short description of assay [20]: control 3'UTR Renilla luciferase suppression, dose response, counter-screen for Shn3 inhibitor project, cell-based, Clone20-Shn3RL, cherry-picked (AID 624133). In kind it is functional.
Assay [21] is described as follows: nonselective inhibitors of cellular cAMP signaling, dose response, counter-screen for MC4R biased antagonist project, cell-based, TR-FRET cAMP detection (AID 602305).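 Also: U2OS cells stimulated with forskolin near its EC80 as the cAMP inducer; potency is for inhibition of forskolin-stimulated cAMP signaling.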 In kind it is functional.
Assay [22] deals with Photoreceptor-specific nuclear receptor (Homo sapiens, UniProt Q9Y5X4). In kind it is functional, cell-based.
Assay [23] deals with Melanocortin receptor 4 (Homo sapiens, UniProt P32245). The assay can be described thus: MC4R antagonist potency on cAMP, dose response, cell-based, TR-FRET, biased antagonists (AID 602298).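 Also: antagonist potency against agonist-stimulated cAMP production.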 In kind it is functional. (In general: In TR-FRET formats the signal depends on donor and acceptor labels being close together.)
Assay [24] is described as follows: Shn3 3'UTR reporter inhibitors, dose response, cell-based, Clone20 osteoblasts, firefly luciferase, cherry-picked (AID 624132).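 Also: firefly luciferase luminescence from reporter carrying the Shn3 3'UTR in osteoblasts.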 In kind it is functional.
Assay [25] can be described thus: HepG2 cell cytotoxicity, dose response, cytotoxicity control for Shn3 inhibitor project, CellTiter-Glo, cherry-picked (AID 624134). In kind it is functional, cell-based.
The target in assay [26] is Hexokinase (Trypanosoma brucei, UniProt Q38C41). Briefly: Confirmation assay for inhibitors of Trypanosoma brucei hexokinase 1-Analogue-first series. [Related pubchem assays (depositor defined):AID1430, AID1632, AID2516, AID2560, AID2579, AID2600, AID449725, AID492951]. In kind it is functional.
Assay [27] has as its target T5, Tyrosine-protein phosphatase non-receptor type 7 (Homo sapiens, UniProt P35236).
T5 sequence (P35236 whole entry): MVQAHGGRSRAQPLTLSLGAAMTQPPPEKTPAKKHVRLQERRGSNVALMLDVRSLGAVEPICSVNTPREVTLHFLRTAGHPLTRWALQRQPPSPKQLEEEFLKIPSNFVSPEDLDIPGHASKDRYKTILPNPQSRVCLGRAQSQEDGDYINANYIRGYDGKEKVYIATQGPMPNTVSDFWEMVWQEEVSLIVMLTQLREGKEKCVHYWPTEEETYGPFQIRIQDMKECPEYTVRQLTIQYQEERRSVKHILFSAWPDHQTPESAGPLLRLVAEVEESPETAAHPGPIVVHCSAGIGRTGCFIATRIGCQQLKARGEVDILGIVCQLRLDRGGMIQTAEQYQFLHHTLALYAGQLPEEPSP
The assay can be described thus: redox-dependent HePTP inhibition, mechanism study, biochemical, fluorescence (AID 2068). In kind it is functional.

Experimental findings from ChEMBL document CHEMBL1201862, “PubChem BioAssay data set” (2004) are described below.

Usually CC50 stands for the concentration that lowers cell viability or growth by half. For orientation: AC50 means the concentration at which the activity in the assay is half-maximal.

Activity calls are given as the source filed them. Where only a bound is given, the exact number is not on record here.

Chain of Hexokinase (Q38C41 whole entry): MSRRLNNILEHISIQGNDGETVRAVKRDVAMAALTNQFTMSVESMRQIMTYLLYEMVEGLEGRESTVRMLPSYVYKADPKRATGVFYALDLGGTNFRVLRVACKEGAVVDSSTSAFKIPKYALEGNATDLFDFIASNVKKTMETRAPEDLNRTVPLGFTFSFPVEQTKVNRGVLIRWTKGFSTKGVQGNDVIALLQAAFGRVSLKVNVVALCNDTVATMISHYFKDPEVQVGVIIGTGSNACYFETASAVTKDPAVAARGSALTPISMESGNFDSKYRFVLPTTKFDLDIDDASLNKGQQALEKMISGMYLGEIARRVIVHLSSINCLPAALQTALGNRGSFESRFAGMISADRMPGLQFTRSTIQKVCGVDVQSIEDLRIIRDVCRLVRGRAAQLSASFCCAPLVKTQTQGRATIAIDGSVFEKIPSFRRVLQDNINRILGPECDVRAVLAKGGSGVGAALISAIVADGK
Chain of G-protein coupled receptor 55 (Q9Y2T6 whole entry): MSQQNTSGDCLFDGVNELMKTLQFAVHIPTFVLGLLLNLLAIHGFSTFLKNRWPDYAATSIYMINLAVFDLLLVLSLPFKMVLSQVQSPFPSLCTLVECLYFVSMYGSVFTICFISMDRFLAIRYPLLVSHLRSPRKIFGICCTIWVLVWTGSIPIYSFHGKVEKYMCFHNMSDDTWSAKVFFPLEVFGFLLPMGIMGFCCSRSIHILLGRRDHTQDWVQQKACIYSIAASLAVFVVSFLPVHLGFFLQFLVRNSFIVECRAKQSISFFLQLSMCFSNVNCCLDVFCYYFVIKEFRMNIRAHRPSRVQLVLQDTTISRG
Chain of DNA dC->dU-editing enzyme APOBEC-3A (P31941 whole entry): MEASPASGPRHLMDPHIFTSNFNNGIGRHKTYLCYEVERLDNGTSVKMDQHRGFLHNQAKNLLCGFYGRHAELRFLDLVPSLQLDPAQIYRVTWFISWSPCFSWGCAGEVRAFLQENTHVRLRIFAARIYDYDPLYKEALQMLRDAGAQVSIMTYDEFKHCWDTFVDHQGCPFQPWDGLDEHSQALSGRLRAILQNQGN
Chain of DNA dC->dU-editing enzyme APOBEC-3G (Q9HC16 whole entry): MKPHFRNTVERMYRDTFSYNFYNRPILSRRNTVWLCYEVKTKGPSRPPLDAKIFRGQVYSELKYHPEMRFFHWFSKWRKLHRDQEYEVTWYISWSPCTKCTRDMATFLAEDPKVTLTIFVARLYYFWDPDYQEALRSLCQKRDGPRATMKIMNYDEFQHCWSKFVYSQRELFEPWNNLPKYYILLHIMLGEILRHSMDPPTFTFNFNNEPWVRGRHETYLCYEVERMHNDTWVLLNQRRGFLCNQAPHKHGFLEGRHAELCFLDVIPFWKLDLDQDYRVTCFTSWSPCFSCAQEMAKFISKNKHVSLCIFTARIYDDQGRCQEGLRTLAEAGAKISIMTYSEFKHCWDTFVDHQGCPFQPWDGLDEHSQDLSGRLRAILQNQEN
Chain of Disintegrin and metalloproteinase domain-containing protein 17 (P78536 whole entry, the tested form may be a part): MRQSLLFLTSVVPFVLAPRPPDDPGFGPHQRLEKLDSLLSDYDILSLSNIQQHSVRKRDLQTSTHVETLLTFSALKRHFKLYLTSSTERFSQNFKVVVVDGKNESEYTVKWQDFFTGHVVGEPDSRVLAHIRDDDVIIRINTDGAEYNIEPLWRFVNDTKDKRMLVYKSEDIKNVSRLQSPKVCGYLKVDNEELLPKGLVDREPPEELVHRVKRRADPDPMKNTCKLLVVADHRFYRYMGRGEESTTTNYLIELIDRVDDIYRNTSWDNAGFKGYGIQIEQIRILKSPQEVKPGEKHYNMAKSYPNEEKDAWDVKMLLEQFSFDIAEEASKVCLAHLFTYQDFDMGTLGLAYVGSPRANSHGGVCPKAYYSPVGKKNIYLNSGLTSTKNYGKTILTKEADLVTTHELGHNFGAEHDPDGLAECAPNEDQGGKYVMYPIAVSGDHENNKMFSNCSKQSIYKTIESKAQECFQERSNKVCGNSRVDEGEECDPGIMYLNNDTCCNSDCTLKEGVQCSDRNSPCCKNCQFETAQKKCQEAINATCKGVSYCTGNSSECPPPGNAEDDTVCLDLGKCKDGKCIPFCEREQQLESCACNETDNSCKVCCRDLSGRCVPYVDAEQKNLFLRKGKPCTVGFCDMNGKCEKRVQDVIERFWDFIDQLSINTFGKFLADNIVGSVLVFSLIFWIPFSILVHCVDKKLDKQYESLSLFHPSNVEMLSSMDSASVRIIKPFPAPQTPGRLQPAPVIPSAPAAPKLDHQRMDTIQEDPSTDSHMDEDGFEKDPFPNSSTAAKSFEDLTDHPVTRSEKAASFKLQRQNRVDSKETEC
Chain of Photoreceptor-specific nuclear receptor (Q9Y5X4 whole entry): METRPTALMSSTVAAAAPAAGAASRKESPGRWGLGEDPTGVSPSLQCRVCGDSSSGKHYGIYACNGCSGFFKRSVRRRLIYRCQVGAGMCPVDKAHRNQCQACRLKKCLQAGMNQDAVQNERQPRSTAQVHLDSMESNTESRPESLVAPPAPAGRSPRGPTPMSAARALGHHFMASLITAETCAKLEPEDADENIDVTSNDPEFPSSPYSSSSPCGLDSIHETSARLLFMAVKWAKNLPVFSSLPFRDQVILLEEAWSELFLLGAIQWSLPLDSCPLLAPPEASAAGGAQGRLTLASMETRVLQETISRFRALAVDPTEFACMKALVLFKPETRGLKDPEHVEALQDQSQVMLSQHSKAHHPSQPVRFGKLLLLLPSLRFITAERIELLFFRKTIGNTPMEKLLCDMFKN
Chain of Melanocortin receptor 4 (P32245 whole entry): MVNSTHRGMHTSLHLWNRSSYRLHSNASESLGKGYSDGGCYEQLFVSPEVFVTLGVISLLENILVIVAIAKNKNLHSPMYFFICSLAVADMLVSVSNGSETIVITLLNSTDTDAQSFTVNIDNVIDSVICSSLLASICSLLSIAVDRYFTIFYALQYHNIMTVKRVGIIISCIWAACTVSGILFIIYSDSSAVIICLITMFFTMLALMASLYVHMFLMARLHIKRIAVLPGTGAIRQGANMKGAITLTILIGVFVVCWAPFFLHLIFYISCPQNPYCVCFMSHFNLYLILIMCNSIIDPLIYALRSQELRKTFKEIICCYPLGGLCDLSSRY
Chain of Beta-galactosidase (Q8VNN2 whole entry): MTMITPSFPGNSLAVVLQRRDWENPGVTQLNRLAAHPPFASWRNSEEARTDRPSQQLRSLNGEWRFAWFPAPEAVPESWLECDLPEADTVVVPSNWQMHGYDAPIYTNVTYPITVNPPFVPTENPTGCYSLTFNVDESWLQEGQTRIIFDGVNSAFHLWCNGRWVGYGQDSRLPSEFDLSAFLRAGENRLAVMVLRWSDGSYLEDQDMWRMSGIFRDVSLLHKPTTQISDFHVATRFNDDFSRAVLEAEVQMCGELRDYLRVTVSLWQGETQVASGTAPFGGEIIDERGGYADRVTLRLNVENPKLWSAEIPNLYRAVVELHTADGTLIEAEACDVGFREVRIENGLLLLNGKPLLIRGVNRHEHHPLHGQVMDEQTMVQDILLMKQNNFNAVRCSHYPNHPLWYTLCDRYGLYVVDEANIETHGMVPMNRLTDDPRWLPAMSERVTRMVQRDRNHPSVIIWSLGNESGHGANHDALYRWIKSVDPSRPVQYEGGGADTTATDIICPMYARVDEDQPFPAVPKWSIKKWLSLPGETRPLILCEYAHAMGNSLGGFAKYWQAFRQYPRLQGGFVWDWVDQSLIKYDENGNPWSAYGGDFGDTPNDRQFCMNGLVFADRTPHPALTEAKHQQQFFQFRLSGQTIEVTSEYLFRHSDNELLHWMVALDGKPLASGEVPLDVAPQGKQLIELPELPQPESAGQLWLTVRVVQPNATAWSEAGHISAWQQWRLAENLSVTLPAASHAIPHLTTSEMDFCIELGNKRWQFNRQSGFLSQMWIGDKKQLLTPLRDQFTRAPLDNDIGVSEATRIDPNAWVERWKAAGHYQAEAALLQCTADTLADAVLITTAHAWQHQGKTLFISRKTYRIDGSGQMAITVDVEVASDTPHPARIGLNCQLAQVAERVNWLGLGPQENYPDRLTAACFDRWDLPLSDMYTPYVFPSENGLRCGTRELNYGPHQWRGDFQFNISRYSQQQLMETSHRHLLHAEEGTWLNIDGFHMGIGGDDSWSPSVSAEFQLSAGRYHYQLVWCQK
Chain of CAAX prenyl protease 2 (Saccharomyces cerevisiae S288c, UniProt Q03530) (Q03530 whole entry): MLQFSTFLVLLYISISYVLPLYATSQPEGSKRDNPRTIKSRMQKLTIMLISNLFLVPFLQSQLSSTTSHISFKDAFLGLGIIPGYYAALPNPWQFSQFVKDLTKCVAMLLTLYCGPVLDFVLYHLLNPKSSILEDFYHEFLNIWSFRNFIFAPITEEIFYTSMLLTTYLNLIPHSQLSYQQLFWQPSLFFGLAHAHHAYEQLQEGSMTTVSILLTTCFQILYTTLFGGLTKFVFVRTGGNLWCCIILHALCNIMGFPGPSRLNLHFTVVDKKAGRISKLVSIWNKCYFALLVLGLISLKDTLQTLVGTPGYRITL

As to `CCO[C@H]1OC(C(=O)Nc2ccccc2)=C[C@@H](c2csc3ccccc23)[C@@H]1CCCO`, the IC50 is 11.2 µM (inactive) in [1] and > 69.5 µM (inactive) in assay [3]. Moreover, in assay [2], the CC50 is 18.7 µM (active). The figures for the half-maximal activity concentration (AC50) in assay [4] and in assay [5] were 17.5 µM (active) and 0.183 µM (active), respectively.

As to `CCOc1ccc(N)c(SSc2cc(OCC)ccc2N)c1`, the IC50 is 17.1 µM (active) in assay [6] and > 100 µM (inactive) in [7].

Take `CCCOC(=O)c1ccc(Oc2c[nH]nc2-c2ccc(OCC)cc2O)cc1`: the EC50 is > 53 µM (inactive) in [8]; > 150 µM (not active) in [9]; 6.96 µM (active) in assay [10]; 33.8 µM (active) in assay [11]; 6.6 µM (active) in assay [12]; > 32 µM (inactive) in [15]. The EC50 in assay [17] was 8.69 µM (active). The IC50 is > 69.5 µM (inactive) in assay [3], 19.6 µM (not active) in assay [13] and > 47.1 µM (inactive) in assay [16]. Besides, the AC50 in [14] was 7.92 µM (active).

For the compound `O=S(=O)(/C(=C\c1ccc(C(F)(F)F)cc1)c1nc2ccccc2[nH]1)c1ccccc1`, the concentration at half-maximal activity (AC50) in assay [18] was 3.11 µM (active); in assay [20], < 0.5 µM (active); in assay [24] it was 1.85 µM (active); in assay [25], 6.49 µM (active). In addition, the IC50 in [19] was > 66.6 µM (inactive); in assay [21], > 64.6 µM (inactive); in [22] it was 4.42 µM (active); in assay [23] it was 9.39 µM (active).

On to `O=c1c2cc(Br)ccc2sn1-c1ccccc1`, for which, in assay [26], the IC50 is > 25 µM (inactive).

As to `CCN(CC)C(=O)C1CCCN(C(=O)Nc2ccc3nc(-c4ccco4)c(-c4ccco4)nc3c2)C1` (configuration not stated), in assay [27], the IC50 was 2.66 µM (active).

As for `CCCN(CCC)Cc1c(C(=O)N/N=C/c2c[nH]c3ccccc23)nnn1-c1nonc1N`, the EC50 in assay [15] is 0.905 µM (active).

In the case of `CC(/C=N/n1c(S)nnc1-c1cc(C)[nH]n1)=C\c1ccco1`, the results for the IC50 in [6] and in assay [7] were 2.47 µM (active) and > 100 µM (inactive), respectively.

Consider `COc1ccc(C(=O)NCC(=O)O)cc1`, for which the IC50 in [26] is > 25 µM (inactive).
